# Results reported in the supplement of paper PMC10307832.
# Compound: COC1=C(C=C(C=C1)C2=CC3=NC=CN3C(=N2)NC4=C(C=CC=N4)C(=O)N)OC [BAY61-3606] + Cc1cc(Nc2cc(N3CCN(C)CC3)nc(Sc3ccc(NC(=O)C4CC4)cc3)n2)n[nH]1 [Tozasertib] (partner 0.1 µM)
# Assay: relative viability (nuclei count vs DMSO), 5 days (fraction); higher = more cells survive
# Details: first compound 0.02 µM
# Procedure, shortened: (§1)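 Five library-drug doses in √10 steps were combined with a fixed anchor-drug dose, or a single drug was given alone, by pin tool to lung cancer cell lines in 1536-well plates the day after seeding. Nuclei were stained and counted after 5 days. Relative viability is the nuclei count in treated wells over that in vehicle wells, taken as the median of duplicate plates.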
row,Cell Line,relative viability
1,NCI-H1395,0.722
2,201T,1
3,NCI-H1975,0.763
4,HOP-62,0.323
5,NCI-H2405,0.698
6,NCI-H1355,0.568
7,NCI-H838,0.285
8,CAL-12T,0.289
9,NCI-H1666,0.6
10,EPLC-272H,0.262
11,NCI-H2347,0.531
12,NCI-H1915,0.416
13,NCI-H1437,0.402
14,NCI-H460,0.447
15,NCI-H2085,0.809
16,HCC-15,0.29
17,NCI-H1944,0.256
18,EKVX,0.366
19,LCLC-103H,0.459
20,NCI-H2170,0.714
21,NCI-H1993,0.521
22,NCI-H23,0.378
23,ABC-1,0.2
24,PC-14,0.597
25,HCC-366,0.115

# Same assay, conditions: first compound 0.06325 µM
row,Cell Line,relative viability
1,NCI-H1395,0.679
2,201T,0.593
3,NCI-H1975,0.521
4,HOP-62,0.224
5,NCI-H2405,0.426
6,NCI-H1355,0.344
7,NCI-H838,0.224
8,CAL-12T,0.305
9,NCI-H1666,0.572
10,EPLC-272H,0.247
11,NCI-H2347,0.384
12,NCI-H1915,0.329
13,NCI-H1437,0.391
14,NCI-H460,0.0447
15,NCI-H2085,0.531
16,HCC-15,0.194
17,NCI-H1944,0.224
18,EKVX,0.299
19,LCLC-103H,0.335
20,NCI-H2170,0.475
21,NCI-H1993,0.582
22,NCI-H23,0.342
23,ABC-1,0.181
24,PC-14,0.637
25,HCC-366,0.0576

# Same assay, conditions: first compound 0.2 µM
row,Cell Line,relative viability
1,NCI-H1395,0.682
2,201T,0.774
3,NCI-H1975,0.323
4,HOP-62,0.297
5,NCI-H2405,0.479
6,NCI-H1355,0.49
7,NCI-H838,0.234
8,CAL-12T,0.198
9,NCI-H1666,0.492
10,EPLC-272H,0.362
11,NCI-H2347,0.394
12,NCI-H1915,0.365
13,NCI-H1437,0.428
14,NCI-H460,0.139
15,NCI-H2085,0.546
16,HCC-15,0.222
17,NCI-H1944,0.239
18,EKVX,0.383
19,LCLC-103H,0.484
20,NCI-H2170,0.751
21,NCI-H1993,0.621
22,NCI-H23,0.296
23,ABC-1,0.163
24,PC-14,0.5
25,HCC-366,0.0642

# Same assay, conditions: first compound 0.6325 µM
row,Cell Line,relative viability
1,NCI-H1395,0.781
2,201T,0.565
3,NCI-H1975,0.257
4,HOP-62,0.286
5,NCI-H2405,0.491
6,NCI-H1355,0.344
7,NCI-H838,0.23
8,CAL-12T,0.303
9,NCI-H1666,0.473
10,EPLC-272H,0.242
11,NCI-H2347,0.427
12,NCI-H1915,0.277
13,NCI-H1437,0.416
14,NCI-H460,0.0713
15,NCI-H2085,0.481
16,HCC-15,0.2
17,NCI-H1944,0.249
18,EKVX,0.436
19,LCLC-103H,0.352
20,NCI-H2170,0.607
21,NCI-H1993,0.59
22,NCI-H23,0.342
23,ABC-1,0.16
24,PC-14,0.568
25,HCC-366,0.0443

# Same assay, conditions: first compound 2 µM
row,Cell Line,relative viability
1,NCI-H1395,0.411
2,201T,0.378
3,NCI-H1975,0.11
4,HOP-62,0.144
5,NCI-H2405,0.287
6,NCI-H1355,0.214
7,NCI-H838,0.224
8,CAL-12T,0.165
9,NCI-H1666,0.458
10,EPLC-272H,0.157
11,NCI-H2347,0.32
12,NCI-H1915,0.152
13,NCI-H1437,0.374
14,NCI-H460,0.0263
15,NCI-H2085,0.345
16,HCC-15,0.149
17,NCI-H1944,0.215
18,EKVX,0.16
19,LCLC-103H,0.213
20,NCI-H2170,0.213
21,NCI-H1993,0.577
22,NCI-H23,0.236
23,ABC-1,0.208
24,PC-14,0.174
25,HCC-366,0.0501

# Compound: COC1=C(C=C(C=C1)C2=CC3=NC=CN3C(=N2)NC4=C(C=CC=N4)C(=O)N)OC [BAY61-3606] + COc1cc2c(Oc3ccc(NC(=O)C4(C(=O)Nc5ccc(F)cc5)CC4)cc3F)ccnc2cc1OCCCN1CCOCC1 [Foretinib] (partner 0.25 µM)
# Assay: as above
# Details: first compound 0.02 µM
# Procedure, shortened: as §1
row,Cell Line,relative viability
1,NCI-H1395,1.13
2,201T,1.19
3,NCI-H1975,1.06
4,HOP-62,1.05
5,NCI-H2405,1.06
6,NCI-H1355,0.981
7,NCI-H838,0.973
8,CAL-12T,1.12
9,NCI-H1666,1.06
10,EPLC-272H,0.705
11,NCI-H2347,1.03
12,NCI-H1915,1.06
13,NCI-H1437,1.23
14,NCI-H460,1.05
15,NCI-H2085,1.07
16,HCC-15,0.99
17,NCI-H1944,0.912
18,EKVX,0.986
19,LCLC-103H,0.81
20,NCI-H2170,0.993
21,NCI-H1993,0.818
22,NCI-H23,1.05
23,ABC-1,1.19
24,PC-14,0.992
25,HCC-366,0.934

# Same assay, conditions: first compound 0.06325 µM
row,Cell Line,relative viability
1,NCI-H1395,0.934
2,201T,1.05
3,NCI-H1975,0.931
4,HOP-62,1.04
5,NCI-H2405,1.05
6,NCI-H1355,0.911
7,NCI-H838,0.991
8,CAL-12T,1.19
9,NCI-H1666,1.02
10,EPLC-272H,0.6
11,NCI-H2347,0.601
12,NCI-H1915,1.09
13,NCI-H1437,1.22
14,NCI-H460,1
15,NCI-H2085,0.947
16,HCC-15,0.981
17,NCI-H1944,0.815
18,EKVX,0.673
19,LCLC-103H,0.83
20,NCI-H2170,1.03
21,NCI-H1993,0.772
22,NCI-H23,0.907
23,ABC-1,0.973
24,PC-14,0.957
25,HCC-366,0.942

# Same assay, conditions: first compound 0.2 µM
row,Cell Line,relative viability
1,NCI-H1395,0.951
2,201T,1.13
3,NCI-H1975,0.874
4,HOP-62,1.1
5,NCI-H2405,1.11
6,NCI-H1355,0.922
7,NCI-H838,0.947
8,CAL-12T,1
9,NCI-H1666,0.987
10,EPLC-272H,0.789
11,NCI-H2347,1.46
12,NCI-H1915,1.07
13,NCI-H1437,1.31
14,NCI-H460,1.05
15,NCI-H2085,0.995
16,HCC-15,0.963
17,NCI-H1944,0.858
18,EKVX,0.768
19,LCLC-103H,0.832
20,NCI-H2170,1.02
21,NCI-H1993,0.712
22,NCI-H23,1.01
23,ABC-1,0.971
24,PC-14,0.911
25,HCC-366,0.93

# Same assay, conditions: first compound 0.6325 µM
row,Cell Line,relative viability
1,NCI-H1395,0.995
2,201T,1.17
3,NCI-H1975,0.974
4,HOP-62,1.13
5,NCI-H2405,1.11
6,NCI-H1355,0.992
7,NCI-H838,1.06
8,CAL-12T,1.19
9,NCI-H1666,0.991
10,EPLC-272H,0.694
11,NCI-H2347,0.856
12,NCI-H1915,1.13
13,NCI-H1437,1.38
14,NCI-H460,0.973
15,NCI-H2085,0.871
16,HCC-15,1.05
17,NCI-H1944,0.886
18,EKVX,0.978
19,LCLC-103H,0.701
20,NCI-H2170,0.523
21,NCI-H1993,0.794
22,NCI-H23,1.03
23,ABC-1,1.11
24,PC-14,0.963
25,HCC-366,0.924

# Same assay, conditions: first compound 2 µM
row,Cell Line,relative viability
1,NCI-H1395,0.807
2,201T,1.11
3,NCI-H1975,0.65
4,HOP-62,0.815
5,NCI-H2405,0.867
6,NCI-H1355,0.761
7,NCI-H838,0.955
8,CAL-12T,0.656
9,NCI-H1666,0.918
10,EPLC-272H,0.397
11,NCI-H2347,1.17
12,NCI-H1915,0.613
13,NCI-H1437,1.28
14,NCI-H460,0.945
15,NCI-H2085,0.917
16,HCC-15,0.83
17,NCI-H1944,0.396
18,EKVX,0.695
19,LCLC-103H,0.681
20,NCI-H2170,0.782
21,NCI-H1993,0.66
22,NCI-H23,0.874
23,ABC-1,0.907
